≈ marks a conversion by molar mass, not a printed value. Where “and” joins values, the source holds several entries; their conditions need not be identical. Equal values may be shown once.
Assays:
[1] = tested on: Staphylococcus aureus (ATCC13709); experiment: Antimicrobial activity, CLSI broth microdilution MIC; type: cell-based; conditions: read-out: MIC S. aureus
From the text: (§1) The Clinical and Laboratory Standards (CLSI) recommended procedure (Document M7-[…], Methods for Dilution Susceptibility Tests for Bacteria that Grow Aerobically) by broth microdilution was used to determine the antimicrobial activity of compounds against Escherichia coli (ATCC25922), Staphylococcus aureus (ATCC13709), Streptococcus pneumoniae (ATCC49619), Streptococcus pyogenes (ATCC700294), Moraxella catarrhalis (ATCC23246) and Haemophilus influenzae (ATCC49247). The minimum inhibitory concentration (MIC) is determined as the lowest concentration of compound that inhibited visible growth.

[2] = tested on: Escherichia coli (ATCC25922); experiment: as above; type: cell-based
From the text: as §1

[3] = tested on: Streptococcus pneumoniae (ATCC49619); experiment: as above; type: cell-based; conditions: read-out: MIC S. penumoniae
From the text: as §1

[4] = tested on: Streptococcus pyogenes (ATCC700294); experiment: as above; type: cell-based; conditions: read-out: MIC S. pyogenes
From the text: as §1

[5] = tested on: Haemophilus influenzae (ATCC49247); experiment: as above; type: cell-based; conditions: read-out: MIC H. influenzae
From the text: as §1

[6] = tested on: Moraxella catarrhalis (ATCC23246); experiment: as above; type: cell-based
From the text: as §1

[7] = tested on: neutrophil accumulation in BALF of cigarette-smoke-challenged mice; experiment: Cigarette-smoke-induced pulmonary inflammation; type: in vivo, mouse; conditions: oral dosing 2 h prior smoke challenge on each smoke day
recombinant human CYP2D6 = target: T1, recombinant human CYP2D6 (Homo sapiens, UniProt P10635); experiment: In vitro cytochrome inhibition; type: in vitro ADME; conditions: recombinant human CYP, fluorescent probe; read-out: IC50 inhibition of cytochrome 2D6
T1 construct: purchased Cypex
T1 sequence (P10635 whole entry): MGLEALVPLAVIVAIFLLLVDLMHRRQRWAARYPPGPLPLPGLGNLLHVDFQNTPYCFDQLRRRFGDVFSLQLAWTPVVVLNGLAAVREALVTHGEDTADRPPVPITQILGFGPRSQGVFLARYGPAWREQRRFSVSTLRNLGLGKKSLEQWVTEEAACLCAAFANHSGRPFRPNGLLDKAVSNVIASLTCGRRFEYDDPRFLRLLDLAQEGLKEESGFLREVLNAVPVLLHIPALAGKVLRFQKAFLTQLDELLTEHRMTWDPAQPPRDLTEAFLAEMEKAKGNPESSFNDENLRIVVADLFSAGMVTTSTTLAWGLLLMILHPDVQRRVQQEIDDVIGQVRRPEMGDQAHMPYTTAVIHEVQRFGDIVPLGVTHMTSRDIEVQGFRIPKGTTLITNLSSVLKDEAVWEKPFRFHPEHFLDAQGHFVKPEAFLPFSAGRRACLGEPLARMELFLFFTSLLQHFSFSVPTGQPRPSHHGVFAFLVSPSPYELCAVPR
Procedure: (§2) Test compounds were incubated using a concentration range from 0.1 to 100 µM with recombinant human CYP1A2, 2C9, 2C19, 2D6 and 3A4 (Cypex). The compounds were preincubated at 37 °C for 5 or 10 min with the CYP enzyme isoforms, in the presence of 50 mM phosphate buffer (pH 7.4) and fluorescent probes. The incubations were started by addition of a cofactor solution containing NADP, glucose 6-phosphate and glucose 6-phosphate dehydrogenase. The plates were incubated for 10 min at 37 °C reading the fluorescence signal on a plate reader throughout. The fluorescence data were then used to calculate the IC50 values for each compound.

recombinant human CYP2C9 = target: T2, recombinant human CYP2C9 (Homo sapiens, UniProt P11712); experiment: In vitro cytochrome inhibition; type: in vitro ADME; conditions: recombinant human CYP, fluorescent probe; read-out: IC50 inhibition of cytochrome 2C9
T2 construct: purchased Cypex
T2 sequence (P11712 whole entry): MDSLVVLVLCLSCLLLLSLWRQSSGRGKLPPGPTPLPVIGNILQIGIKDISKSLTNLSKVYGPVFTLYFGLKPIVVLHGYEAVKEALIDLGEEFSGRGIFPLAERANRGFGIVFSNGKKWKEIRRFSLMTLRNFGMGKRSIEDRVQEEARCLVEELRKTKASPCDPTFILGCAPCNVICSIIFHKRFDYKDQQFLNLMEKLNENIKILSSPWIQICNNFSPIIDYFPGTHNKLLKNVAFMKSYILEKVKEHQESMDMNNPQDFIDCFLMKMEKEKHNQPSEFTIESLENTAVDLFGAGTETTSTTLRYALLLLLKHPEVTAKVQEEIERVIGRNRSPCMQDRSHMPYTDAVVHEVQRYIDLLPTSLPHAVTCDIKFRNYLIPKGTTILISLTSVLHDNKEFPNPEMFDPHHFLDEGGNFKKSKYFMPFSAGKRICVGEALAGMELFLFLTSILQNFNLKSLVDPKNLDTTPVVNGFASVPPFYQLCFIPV
Procedure: as §2

recombinant human CYP1A2 = target: T3, recombinant human CYP1A2 (Homo sapiens, UniProt P05177); experiment: In vitro cytochrome inhibition; type: in vitro ADME; conditions: recombinant human CYP, fluorescent probe; read-out: IC50 inhibition of cytochrome 1A2
T3 construct: purchased Cypex
T3 sequence (P05177 1-516): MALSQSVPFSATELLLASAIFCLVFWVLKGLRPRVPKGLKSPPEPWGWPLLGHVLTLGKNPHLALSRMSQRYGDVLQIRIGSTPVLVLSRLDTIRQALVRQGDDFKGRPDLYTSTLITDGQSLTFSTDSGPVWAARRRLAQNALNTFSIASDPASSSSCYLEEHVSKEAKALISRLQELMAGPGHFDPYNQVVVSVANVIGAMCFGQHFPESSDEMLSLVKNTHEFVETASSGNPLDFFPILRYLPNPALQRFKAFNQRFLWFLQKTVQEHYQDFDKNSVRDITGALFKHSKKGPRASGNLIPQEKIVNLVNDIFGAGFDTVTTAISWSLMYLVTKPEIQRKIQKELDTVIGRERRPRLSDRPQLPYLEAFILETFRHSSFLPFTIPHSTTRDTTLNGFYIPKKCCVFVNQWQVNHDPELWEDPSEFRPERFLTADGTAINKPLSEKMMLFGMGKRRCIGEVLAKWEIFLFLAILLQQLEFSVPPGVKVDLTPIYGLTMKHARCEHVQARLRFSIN
Procedure: as §2

[8] = target: T4, recombinant human CYP2C19 (Homo sapiens, UniProt P33261); experiment: In vitro cytochrome inhibition; type: in vitro ADME; conditions: recombinant human CYP, fluorescent probe; read-out: IC50 inhibition of cytochrome 2C19
T4 construct: purchased Cypex
T4 sequence (P33261 whole entry): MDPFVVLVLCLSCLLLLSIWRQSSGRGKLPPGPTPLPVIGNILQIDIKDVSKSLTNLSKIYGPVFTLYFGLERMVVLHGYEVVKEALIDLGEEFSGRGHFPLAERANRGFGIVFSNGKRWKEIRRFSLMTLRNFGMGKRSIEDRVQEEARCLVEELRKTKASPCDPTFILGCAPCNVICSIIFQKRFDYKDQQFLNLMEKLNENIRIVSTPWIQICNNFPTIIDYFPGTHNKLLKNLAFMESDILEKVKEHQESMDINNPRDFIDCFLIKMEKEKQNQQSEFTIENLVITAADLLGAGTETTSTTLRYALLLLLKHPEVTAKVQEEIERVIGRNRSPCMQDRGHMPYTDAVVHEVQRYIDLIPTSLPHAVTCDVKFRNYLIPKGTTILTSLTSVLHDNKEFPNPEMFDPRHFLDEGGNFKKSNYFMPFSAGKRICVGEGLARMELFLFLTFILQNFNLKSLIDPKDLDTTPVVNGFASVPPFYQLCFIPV
Procedure: as §2

recombinant human CYP3A4 = target: T5, recombinant human CYP3A4 (Homo sapiens, UniProt P08684); experiment: In vitro cytochrome inhibition; type: in vitro ADME; conditions: recombinant human CYP, fluorescent probe; read-out: IC50 inhibition of cytochrome 3A4
T5 construct: purchased Cypex
T5 sequence (P08684 whole entry): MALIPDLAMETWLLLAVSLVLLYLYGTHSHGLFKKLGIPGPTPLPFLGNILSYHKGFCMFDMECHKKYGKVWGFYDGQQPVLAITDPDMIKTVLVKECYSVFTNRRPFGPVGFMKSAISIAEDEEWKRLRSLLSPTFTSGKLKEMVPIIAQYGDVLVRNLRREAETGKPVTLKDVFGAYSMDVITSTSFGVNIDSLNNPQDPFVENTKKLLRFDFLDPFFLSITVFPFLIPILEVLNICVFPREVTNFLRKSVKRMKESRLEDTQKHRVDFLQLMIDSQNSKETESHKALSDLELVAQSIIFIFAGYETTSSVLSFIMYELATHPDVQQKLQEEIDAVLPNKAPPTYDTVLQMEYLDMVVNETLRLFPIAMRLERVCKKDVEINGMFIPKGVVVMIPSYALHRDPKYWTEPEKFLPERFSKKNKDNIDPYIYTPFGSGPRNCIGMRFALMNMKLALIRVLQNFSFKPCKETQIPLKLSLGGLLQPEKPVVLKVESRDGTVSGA
Procedure: as §2

Pharmacokinetics in rat = type: in vivo, Sprague Dawley rats
Procedure: (§3) Pharmacokinetic profiles were determined in male Balb/c mice and CD Sprague-Dawley rats (Charles River Laboratories, Germany), following single oral (p.o.) and single intravenous (i.v.) bolus administration. The compound was administered at a dose of […] i.v. and 10 mg/kg p.o. Blood was obtained by serial blood sampling from the tail vein over a range of time points up to 30 h postdose. Samples were extracted by protein precipitation and subjected to quantitative analysis by LC-MS/MS using compound-specific mass transitions. Drug concentration−time profiles were generated and noncompartmental PK analysis used to generate estimates of half-life, clearance, volume of distribution, and oral bioavailability.

[9] = tested on: neutrophil accumulation in BALF of LPS-challenged BALB/cJ mice; experiment: LPS-induced pulmonary neutrophilia; type: in vivo, mouse (BALB/cJ); conditions: 200 mg/kg intraperitoneally 2 h prior LPS, BALF 24 h after LPS
Procedure: Vehicle, azithromycin, and compound 4 were administered intraperitoneally at a dose of 200 mg/kg (b.w.) to 10-week-old male BALB/cJ mice (Charles River, Lyon, France) 2 h before intranasal challenge with 2 μg of LPS from E. coli. Then, 24 h after LPS application animals were euthanized and bronchoalveolar lavage was performed. Total number of cells in BALF was counted with a hematological analyzer (Sysmex SF 3000, Sysmex Corp., Kobe, Japan). Percentages of neutrophils were determined by morphological examination of at least 200 cells on smears prepared by cytocentrifugation (Cytospin-3, Thermo Fisher Scientific Inc, Waltham, MA, USA) and stained with Kwik-Diff staining set (Thermo Fisher Scientific Inc., USA).
All values are presented as means ± S.E.M. To define statistically significant differences in cell numbers among vehicle-treated and macrolide-treated mice the data were subjected to one-way ANOVA followed by Dunnett’s Multiple Comparison Test using GraphPad Prism version 5.00 for Windows (GraphPad Software, San Diego, CA, USA). The level of significance was set at p < 0.05 in all cases.

Pharmacokinetics in dog = type: in vivo, Beagle dogs
[10] = Pharmacokinetics in mouse; type: in vivo, Balb/c mice
Procedure: as §3

CC[C@H]1OC(=O)[C@H](C)[C@@H](O[C@H]2C[C@@](C)(OC)[C@@H](O)[C@H](C)O2)[C@H](C)[C@@H](O[C@@H]2O[C@H](C)C[C@H](N(C)C)[C@H]2O)[C@](C)(O)C[C@@H](C)CN(C)[C@H](C)[C@@H](O)[C@]1(C)O [AZM, azithromycin]
MIC [1]: 0.5 µg/mL (≈ 0.668 µM)
MIC [2]: 2 µg/mL (≈ 2.67 µM)
MIC [3]: < 0.125 µg/mL
MIC [4]: < 0.125 µg/mL
MIC [5]: 2 µg/mL (≈ 2.67 µM)
MIC [6]: < 0.125 µg/mL
Neutrophil accumulation in BALF after cigarette-smoke challenge [7]: dose-dependently inhibited the accumulation of neutrophils

CC[C@H]1OC(=O)[C@H](C)[C@@H](O[C@H]2C[C@@](C)(OC)[C@@H](O)[C@H](C)O2)[C@H](C)[C@@H](O[C@H]2C[C@@H](N(C)C)C[C@@H](C)O2)[C@](C)(O)C[C@@H](C)CN(C)[C@H](C)[C@@H](O)[C@]1(C)O [compound 3, 2 ′-dehydroxy azithromycin]
MIC [1]: > 64 µg/mL
MIC [2]: > 64 µg/mL
MIC [3]: 32 µg/mL (≈ 43.7 µM)
MIC [4]: 64 µg/mL (≈ 87.3 µM)
MIC [5]: > 64 µg/mL
MIC [6]: 16 µg/mL (≈ 21.8 µM)

CC[C@H]1OC(=O)[C@H](C)[C@@H](O[C@H]2C[C@@](C)(OC)[C@@H](O)[C@@H](C)O2)[C@H](C)[C@@H](O[C@H]2C[C@@H](N(C)C)C[C@@H](C)O2)[C@](C)(O)C[C@@H](C)CN(C)[C@H](C)[C@@H](O)[C@]1(C)O [compound 4, 2′-dehydroxy-5″-epi-azithromycin]
IC50 (recombinant human CYP2D6): > 33 µM
IC50 (recombinant human CYP2C9): > 33 µM
IC50 (recombinant human CYP1A2): > 33 µM
IC50 [8]: > 33 µM
IC50 (recombinant human CYP3A4): > 33 µM
systemic clearance as % of liver blood flow (Pharmacokinetics in rat): ~17.1 % of liver blood flow
half-life (Pharmacokinetics in rat; Sprague-Dawley, whole blood): ~15 h
Vd (Pharmacokinetics in rat; Sprague-Dawley, whole blood, intravenous, 2 mg/mg, read-out: Vss): 11.7 ± 1.9 L/kg
clearance (Pharmacokinetics in rat; Sprague-Dawley, whole blood, iv, 2 mg/mg, blood): 14.5 ± 8.5 mL/min/kg
Neutrophil accumulation in BALF after intranasal LPS challenge [9]: inhibited neutrophil accumulation
MIC [1]: > 64 µg/mL
MIC [2]: > 64 µg/mL
MIC [3]: > 64 µg/mL
MIC [4]: > 64 µg/mL
MIC [5]: > 64 µg/mL
MIC [6]: > 64 µg/mL
Neutrophil accumulation in BALF after cigarette-smoke challenge [7]: dose-dependently inhibited the accumulation of neutrophils
Oral F (Pharmacokinetics in dog): 62% and 62 ± 10%
systemic clearance as % of liver blood flow (Pharmacokinetics in dog): ~18 % of liver blood flow
half-life (Pharmacokinetics in dog; beagle, in vivo): ~21 h
clearance (Pharmacokinetics in dog; beagle, in vivo, intravenous): 5.5 ± 0.9 mL/min/kg
Vd (Pharmacokinetics in dog; beagle, in vivo, intravenous, read-out: Vss): 6.9 ± 2 L/kg
systemic clearance as % of liver blood flow [10]: ca. 4.6 % of liver blood flow
Oral F ([10]; 10 mg/kg p.o., 10 mg/kg): 12% and 12.4 ± 4.2%
half-life ([10]; male, Balb/c, whole blood): ~11 h
Vd ([10]; male, Balb/c, whole blood, intravenous, 2 mg/mg, read-out: Vss): 2 ± 0.8 L/kg
clearance ([10]; male, Balb/c, whole blood, iv, 2 mg/mg, blood): 4.1 ± 1.1 mL/min/kg
